Values quoted from earlier work in patent US6710179B2, “Compounds with analgesic effect” (AstraZeneca Canada Inc., priority 1996, dated 2004).

Columns and labels:
δ receptor = δ receptor (Homo sapiens, UniProt P41143); details: non-peptidic δ antagonists; review Takemori and Portoghese 1992
[1] = non-peptidic δ antagonists; prior art statement

Sequence of δ receptor (P41143 whole entry): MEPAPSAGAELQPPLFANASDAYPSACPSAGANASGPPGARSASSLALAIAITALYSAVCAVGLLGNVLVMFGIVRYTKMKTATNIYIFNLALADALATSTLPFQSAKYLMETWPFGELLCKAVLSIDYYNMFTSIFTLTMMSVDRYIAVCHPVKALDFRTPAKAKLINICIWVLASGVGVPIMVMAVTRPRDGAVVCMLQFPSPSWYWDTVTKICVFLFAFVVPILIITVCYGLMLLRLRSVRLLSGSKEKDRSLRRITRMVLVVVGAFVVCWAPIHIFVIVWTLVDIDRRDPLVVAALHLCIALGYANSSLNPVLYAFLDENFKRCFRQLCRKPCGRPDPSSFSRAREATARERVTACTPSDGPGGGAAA

Compound: Oc1ccc2c3c1O[C@H]1c4[nH]c5ccccc5c4C[C@@]4(O)[C@@H](C2)N(CC2CC2)CC[C@]314 [naltrindole]
- selectivity for the δ receptor vs. μ receptor binding (δ receptor): < 10 fold
- analgesic activity [1]: no analgesic activity
